PubChem BioAssay AID488792 (NMMLSC, 2010)
Active and inactive are the calls of the source.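 How the source made its calls: active means EC50 at or below 33 microM; inactive means the rest.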

Test system: S. cerevisiae AGP1-GFP strain, flow cytometry fluorescence, 3 h
Assay: yeast AGP1-GFP modulation, KU SAR set, cell-based, flow cytometry, S. cerevisiae, SAR follow-up (AID 488792)

SMILES | EC50
Cc1ccc(S(=O)(=O)c2ccc([N+](=O)[O-])cn2)cc1 | 4.42 µM
CC(C)(C)C(=O)C(Cl)C(=O)Nc1ccccc1 (stereo not given) | 2.09 µM
Cc1ccc(C(c2cc(Cl)c3cccnc3c2O)N2CCN(C)CC2)cc1 (stereo not given) | 98.6 µM (inactive)
CNc1nc(N)c([N+](=O)[O-])c(Nc2cccc(F)c2)n1 | 10.7 µM
Cc1ccc2nc(Cl)c3nnnn3c2c1 | 0.24 µM
CC(=O)SC(C[N+](=O)[O-])c1cn(C(C)=O)c2ccccc12 (stereo not given) | 60.4 µM (inactive)
O=C(OCn1ncc(Br)c(Br)c1=O)c1c(F)cccc1F | 2.44 µM
O=C(OCC(=O)N1CCN(C(=O)c2ccco2)CC1)c1cc(-c2ccc(F)cc2)nc2ccccc12 | 1.25 µM
Nc1nc(Nc2cccc(Cl)c2)nc(Nc2cccc(F)c2)c1[N+](=O)[O-] | 312 µM (inactive)
CCOC(=O)CS(=O)(=O)c1nc(-c2ccccc2)cc(C(F)(F)F)n1 | 1.74 µM
O=[N+]([O-])c1cc(Cl)c2cccnc2c1O | 62 µM (inactive)
CCN(CC)C(=O)Oc1ccnc2cc(Cl)ccc12 | 32.2 µM
Cc1ccc(-c2nn(C(C)(C)C)c3ncnc(N)c23)cc1 | 300 µM (inactive)
Cn1ncc(S(=O)(=O)Cc2ccccc2)c(Cl)c1=O | 105 µM (inactive)
O=[N+]([O-])c1cc(O)c2ncccc2c1 | 34.3 µM (inactive)
O=C(c1ccc(C(=O)N2CCCc3ccccc32)s1)N1CCCc2ccccc21 | 0.46 µM
CCC(C)Nc1nc(N)c([N+](=O)[O-])c(Nc2cccc(F)c2)n1 (stereo not given) | 63.1 µM (inactive)
CC(C)(C)n1nc(-c2ccc(Cl)cc2)c2c(N)ncnc21 | 10.8 µM
CC(C)(C)n1nc(-c2ccc(F)cc2)c2c(N)ncnc21 | 174 µM (inactive)

More lines, now with the values ahead:

EC50 | SMILES
36.5 µM (inactive) | O=C(OCC(=O)N1CCN(C(=O)c2ccco2)CC1)c1cc(-c2cccc(Br)c2)nc2ccccc12
35 µM (inactive) | COc1cccc(Nc2nc(N)c([N+](=O)[O-])c(Nc3cccc(F)c3)n2)c1
137 µM (inactive) | CC(=O)Nc1ncnc2c1c(-c1ccc(Cl)cc1)nn2C(C)(C)C
34.8 µM (inactive) | O=C(Oc1c(Cl)cc(Cl)c2cccnc12)c1cccc([N+](=O)[O-])c1
0.3 µM | COC(=O)CCS(=O)(=O)c1nc(-c2ccccc2)cc(C(F)(F)F)n1
140 µM (inactive) | Nc1nc(Nc2ccccc2)nc(Nc2cccc(F)c2)c1[N+](=O)[O-]
34.5 µM (inactive) | CC(C)(C)C(=O)NC(=S)NNC(=O)c1ccc(-c2ccccc2)cc1
57.5 µM (inactive) | Cc1cc(C(=O)Nc2nc(-c3ccccn3)cs2)ccc1[N+](=O)[O-]
34.1 µM (inactive) | C/C(=N\NC(=O)c1cccc(Br)c1)c1ccccn1
5.98 µM | O=[N+]([O-])c1ccc(O)c2ncccc12
72.9 µM (inactive) | O=C(Nc1nc(-c2ccccn2)cs1)C1COc2ccccc2O1 (stereo not given)
102 µM (inactive) | CC(Oc1ccc(Br)cc1)C(=O)Nc1nc(-c2ccccn2)cs1 (stereo not given)
263 µM (inactive) | Nc1cc(Oc2cccc(Cl)c2)nc(NCc2ccccc2)n1
4.22 µM | CC(=O)c1ccc(N2CCN(C(=O)c3ccc(Br)cc3)CC2)c(F)c1
1.41 µM | CCOC(=O)CCS(=O)(=O)c1nc(-c2ccccc2)cc(C(F)(F)F)n1
14.1 µM | CN1CCN(C(=O)c2cc(COc3c(F)cccc3F)on2)CC1c1ccccc1 (stereo not given)
